Experiments:
delF508-CFTR-HRP = biological target: T1, delF508-CFTR-HRP (Homo sapiens, UniProt P13569, DEL508-508); test: Measurement of delF508-CFTR-HRP surface expression in CFBE41o- cells (HRP luminescence); type: cell-based; details: for Emax: CFBE41o-, read-out: DelF508-CFTR-HRP Amax %; for EC50: mean of at least two replicates;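 as to DelF508-CFTR-HRP Amax %: percent efficacy relative to a reference CFTR corrector compound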
T1 construct: expressed in transfected cells
Procedure, shortened: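 EC50 derived by logistic regression of triplicate surface-HRP luminescence, plate-normalized to the lowest-concentration median. Doxycycline (500 ng/mL, 48 h) induced delF508-CFTR-HRP in CFBE41o- cells; compounds then applied 24 h at 37° C, 10 μM top, 3-fold over 10 points.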

delF508-CFTR = biological target: T2, delF508-CFTR (Homo sapiens, UniProt P13569, DEL508-508); test: delF508-CFTR functional activity in primary human bronchial epithelial cells (HBECs), Multi-Transepithelial Clamp Circuit (MTECC-24) assay, equivalent short circuit current; type: cell-based; details: primary CF HBECs; for MTECC24 CFHBEC-Amax %: relative to reference combination 2 μM 3-(6-(1-(2,2-difluorobenzo[d][1,3]dioxol-5-yl)cyclopropane-1-carboxamido)-3-methylpyridin-2-yl)benzoic acid (24 h) + 0.5 μM N-(2,4-di-tert-butyl-5-hydroxyphenyl)-4-oxo-1,4-dihydroquinoline-3-carboxamide; for EC50: test compound added 24 h before assay, potentiator (S)-3-amino-6-methoxy-N-(3,3,3-trifluoro-2-hydroxy-2-methylpropyl)-5-(trifluoromethyl)picolinamide present at assay, mean of at least two replicates, read-out: MTECC24 CFHBEC-EC50
T2 construct: functional activity of the CFTR channel (Chloride ion transport) in patient derived primary human bronchial epithelial cells; host or cells: patient-derived primary human bronchial epithelial cells (HBECs), delF508-CFTR
Procedure, shortened: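 Compound acted as corrector on differentiated primary delF508-CFTR bronchial cultures, first 24 h basolaterally, then 45 min both sides before reading. Equivalent short circuit current was recorded during sequential forskolin and potentiator addition. EC50 came from 10-point, 1-in-3 dilution curves against the 0.1% DMSO baseline.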

T2 sequence (P13569 with tags, fused parts or gaps DEL508-508): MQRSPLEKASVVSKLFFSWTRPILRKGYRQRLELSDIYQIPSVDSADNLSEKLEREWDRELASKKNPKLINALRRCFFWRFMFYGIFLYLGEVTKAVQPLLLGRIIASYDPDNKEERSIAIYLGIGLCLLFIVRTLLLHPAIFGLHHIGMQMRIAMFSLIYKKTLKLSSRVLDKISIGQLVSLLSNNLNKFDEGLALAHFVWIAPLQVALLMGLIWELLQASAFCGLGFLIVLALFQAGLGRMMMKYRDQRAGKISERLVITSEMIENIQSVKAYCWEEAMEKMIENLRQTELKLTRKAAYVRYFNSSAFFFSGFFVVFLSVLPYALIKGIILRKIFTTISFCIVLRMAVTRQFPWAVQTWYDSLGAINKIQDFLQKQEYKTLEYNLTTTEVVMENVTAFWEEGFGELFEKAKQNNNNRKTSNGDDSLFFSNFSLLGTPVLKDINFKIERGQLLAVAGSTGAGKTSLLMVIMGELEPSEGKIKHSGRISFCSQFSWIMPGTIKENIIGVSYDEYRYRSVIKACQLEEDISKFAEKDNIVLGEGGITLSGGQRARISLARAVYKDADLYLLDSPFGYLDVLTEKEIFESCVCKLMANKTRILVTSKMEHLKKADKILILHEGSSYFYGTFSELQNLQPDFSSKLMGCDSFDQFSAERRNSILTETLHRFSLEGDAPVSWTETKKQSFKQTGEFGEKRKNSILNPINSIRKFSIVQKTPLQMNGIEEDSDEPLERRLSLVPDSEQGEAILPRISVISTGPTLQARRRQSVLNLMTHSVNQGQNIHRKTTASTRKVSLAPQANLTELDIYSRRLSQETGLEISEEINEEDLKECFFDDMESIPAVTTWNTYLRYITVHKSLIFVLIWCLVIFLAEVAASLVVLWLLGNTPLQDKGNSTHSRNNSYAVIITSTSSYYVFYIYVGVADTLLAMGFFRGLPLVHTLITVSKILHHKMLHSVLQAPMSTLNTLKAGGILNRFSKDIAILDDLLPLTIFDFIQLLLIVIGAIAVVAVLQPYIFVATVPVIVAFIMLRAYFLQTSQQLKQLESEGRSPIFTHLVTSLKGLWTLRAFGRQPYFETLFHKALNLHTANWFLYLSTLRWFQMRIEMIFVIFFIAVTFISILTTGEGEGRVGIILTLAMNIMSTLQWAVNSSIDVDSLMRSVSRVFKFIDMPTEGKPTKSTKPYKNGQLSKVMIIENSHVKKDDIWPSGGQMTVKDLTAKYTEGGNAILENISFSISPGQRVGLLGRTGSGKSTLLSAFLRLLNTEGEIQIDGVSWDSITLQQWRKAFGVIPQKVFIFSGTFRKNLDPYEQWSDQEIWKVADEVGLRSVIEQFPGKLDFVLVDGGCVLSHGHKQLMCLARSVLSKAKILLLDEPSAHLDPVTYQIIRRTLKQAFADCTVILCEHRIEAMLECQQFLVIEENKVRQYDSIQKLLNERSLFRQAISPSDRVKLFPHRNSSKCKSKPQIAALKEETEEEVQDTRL
T1 sequence (P13569 with tags, fused parts or gaps DEL508-508): as above

Emax (delF508-CFTR-HRP) [%] | EC50 (delF508-CFTR-HRP) [nM] | MTECC24 CFHBEC-Amax % (delF508-CFTR) [%] | EC50 (delF508-CFTR) [nM] | DelF508-CFTR-HRP Amax % (delF508-CFTR-HRP) [%] | Structure (SMILES)
462 | 2070 | 110.6 | 668 |  | Cc1ccc(OC2CCCCCC2)c(OC2(C(=O)NS(=O)(=O)c3cccc(N4CC[C@H](O)C4)n3)CC2)c1 [Example 6-6, (S)-1-(2-(cycloheptyloxy)-5-methylphenoxy)-N-((6-(3-hydroxypyrrolidin-1-yl)pyridin-2-yl)sulfonyl)cyclopropanecarboxamide]
371 | 2180 | 68 | 20 |  | Cc1ccc(-c2cccc(C(F)(F)F)c2)c(OC2(C(=O)NS(=O)(=O)c3cccc(N4CC[C@@H](O)C4)n3)CC2)c1 [Example 5-11, (R)—N-((6-(3-Hydroxypyrrolidin-1-yl)pyridin-2-yl)sulfonyl)-1-((4-methyl-3′-(trifluoromethyl)-[1,1′-biphenyl]-2-yl)oxy)cyclopropane-1-carboxamide]
363 | 3970 | 64 | 52 |  | Cc1ccc(C2CCC(F)(F)CC2)c(OC2(C(=O)NS(=O)(=O)c3cccc(N[C@H](C)CO)n3)CC2)c1 [Example 3-5]
674 | 1420 | 214.4 | 289 |  | C[C@]1(O)CCN(c2cccc(S(=O)(=O)NC(=O)C3(Oc4cc(Cl)ccc4C4CC5(CCC5)C4)CC3)n2)C1 (single isomer, unassigned) [Example 7-2-1]
 | 2760 | 78 | 10 | 614 | Cc1ccc(C2CCC(F)(F)CC2)c(OC2(C(=O)NS(=O)(=O)c3cccc(N4CCCC(CO)C4)n3)CC2)c1 (single isomer, unassigned) [Example 3-3-2, 1-(2-(4,4-Difluorocyclohexyl)-5-methylphenoxy)-N-((6-(3-(hydroxymethyl)piperidin-1-yl)pyridin-2-yl)sulfonyl)cyclopropane-1-carboxamide]
114 | 4160 | 35 | 69 |  | C[C@H](O)CNc1cccc(S(=O)(=O)NC(=O)C2(Oc3cc(Cl)ccc3C3CC3)CC2)n1 [Example 4-15, (S)-1-(5-Chloro-2-cyclopropylphenoxy)-N-((6-((2-hydroxypropyl)amino)pyridin-2-yl)sulfonyl)cyclopropane-1-carboxamide]
235 | 2420 | 76 | 108 |  | Cc1ccc(C2CCCCC2)c(OC2(C(=O)NS(=O)(=O)c3cccc(N[C@H]4C[C@H](O)C4)n3)CC2)c1 [Example 2-35, 1-(2-Cyclohexyl-5-methylphenoxy)-N-((6-((trans-3-hydroxycyclobutyl)amino)pyridin-2-yl)sulfonyl)cyclopropane-1-carboxamide]
512 | 640 | 91 | 13 |  | Cc1ccc(C2CCCCC2)c(OC2(C(=O)NS(=O)(=O)c3cccc(N4CCN(c5ccc(F)cc5)CC4)n3)CC2)c1 [Example 2-55, 1-(2-Cyclohexyl-5-methylphenoxy)-N-((6-(4-(4-fluorophenyl)piperazin-1-yl)pyridin-2-yl)sulfonyl)cyclopropane-1-carboxamide]
794 | 1020 | 135.1 | 132 |  | O=C(NS(=O)(=O)c1cccc(N2CC[C@H](O)C2)n1)C1(Oc2cc(Cl)ccc2C2CC3(CCC3)C2)CC1 [Example 7-3, (S)-1-(5-chloro-2-(spiro[3.3]heptan-2-yl)phenoxy)-N-((6-(3-hydroxypyrrolidin-1-yl)pyridin-2-yl)sulfonyl)cyclopropanecarboxamide]
314 | 2180 | 138 | 156 |  | Cc1ccc(C2CCC(F)(F)C2)c(OC2(C(=O)NS(=O)(=O)c3cccc(N4CCC[C@@H](CO)C4)n3)CC2)c1 (single isomer, unassigned) [Example 4-7]
